Reference: US8957063B2, “Amine and ether compounds which modulate the CB2 receptor” (priority 2008, dated 2015)
pEC50: −log10 of the molar value.

Target: T1, human CB2R (Homo sapiens, UniProt P34972)
T1 construct: host or cells: CHO cells
Test: CB2R mediated modulation of cAMP synthesis
Type: cell-based
Method: B. CB2R Mediated Modulation of cAMP Synthesis:
Compounds of the invention were evaluated for their CB2 agonist or inverse agonistic activity in accordance with the following experimental method.
CHO cells expressing human CB2R (Euroscreen) were plated at a density of 5000 cells per well in 384 well plates and incubated overnight at 37° C. After removing the media, the cells were treated with test compounds diluted in stimulation buffer containing 1 mM IBMX, 0.25% BSA and 10 uM Forskolin. The assay was incubated for 30 minutes at 37° C. Cells were lysed and the cAMP concentration was measured using DiscoverX-XS cAMP kit, following the manufacturer's protocol. In this setting, agonists will decrease forskolin induced production of cAMP while inverse agonists will further increase forskolin induced production of cAMP. EC50 of agonists were calculated as follows. The maximal amount of cAMP produced by forskolin compared to the level of cAMP inhibited by 1 uM CP55940 is defined as 100%. The EC50 value of each test compound was determined as the concentration at which 50% of the forskolin-stimulated cAMP synthesis was inhibited. Data was analyzed using a four-parameter logistic model. (Model 205 of XLfit 4.0).

T1 sequence (P34972 whole entry): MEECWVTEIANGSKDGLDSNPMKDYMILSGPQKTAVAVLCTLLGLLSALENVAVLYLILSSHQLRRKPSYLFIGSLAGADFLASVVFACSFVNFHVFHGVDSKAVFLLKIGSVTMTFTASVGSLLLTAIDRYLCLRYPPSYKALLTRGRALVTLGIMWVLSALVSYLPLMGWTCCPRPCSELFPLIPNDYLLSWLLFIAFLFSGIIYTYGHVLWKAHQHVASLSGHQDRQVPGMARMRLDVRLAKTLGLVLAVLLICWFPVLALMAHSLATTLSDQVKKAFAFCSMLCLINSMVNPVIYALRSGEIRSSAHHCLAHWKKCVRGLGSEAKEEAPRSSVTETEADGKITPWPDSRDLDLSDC

| SMILES | pEC50 |
| --- | --- |
| CC(C)(OC1CCOCC1)C(=O)Nc1cc(C(C)(C)C)on1 [Example 5, N-(5-tert-Butyl-isoxazol-3-yl)-2-methyl-2-(tetrahydro-pyran-4-yloxy)-propionamide] | 6.91 |
| CC(C)(NCC1CCOCC1)C(=O)Nc1cc(C(C)(C)C)no1 [Example 37] | 7.85 |
